Entries after “also recorded” stand apart in the source; their conditions may differ. Like-named read-outs stand apart in the source and are kept apart here.
What was measured:
[1] = system: C2C12 cells; experiment: C2C12 cell viability (XTT assay); conditions: same treatment as IGF-II assay
Protocol: The viability of cells treated as in A was measured at each of the indicated concentrations by the XTT assay.
C2C12 cells (ATCC, Rockville, Md.) were induced to differentiate either by complete withdrawal of serum or by shifting to medium supplemented with 2% house serum. […] Cell growth was measured with the XTT formazan colorimetric assay (Roche), cells were grown in 3% serum, to limit the background of the assay.

[2] = system: cytosolic Hsp90 (Hsp90α and Hsp90β); experiment: Western blot of Hsp90α/β client proteins (Raf, Akt) in HEK293 cell lysates; format: cell-based, human; conditions: for concentration at which Hsp90α/β client proteins (Raf, Akt) are degraded/affected: HEK293, Western blot
Protocol: As previously mentioned, it has been shown that Grp94 is not essential for tissue culture cell viability.^28 In contrast, loss of functional Hsp90α or Hsp90β results in cell death. […]. […] To support these findings, western blot analyses of Hsp90α/β client proteins were performed from HEK293 cell lysates. […].
Briefly, HEK293 cells were plated in 6-well plates and treated with various concentrations of drug, GDA in DMSO (1% DMSO final concentration), or vehicle (DMSO) for 24 h. Cells were harvested in cold PBS and lysed in mammalian protein extraction reagent (MPER, Pierce) and protease inhibitors (Roche) on ice for 1 h. Lysates were clarified at 14,000 g for 10 min at 4° C. Protein concentrations were determined with the Pierce BCA assay kit per the manufacturer's instructions. Equal amounts of protein (10 μg) were electrophoresed under reducing conditions, transferred to a PVDF membrane, and immunoblotted with the corresponding specific antibodies. Membranes were incubated with an appropriate horseradish peroxidase-labeled secondary anti-body, developed with chemiluminescent substrate, and visualized.

[3] = system: cytosolic Hsp90; experiment: Akt stability in the BiP induction experiment (immunoblot); format: cell-based; conditions: same concentrations as BiP induction
Protocol: NIH-3T3 cells were treated with 25 μM of 17-AAG (AAG), 10 μM of RDC or 0-50 μM of 2. After 18 hrs cells were harvested for SDS-PAGE and analyzed by immunoblotting. Grp94, BiP and PDIA6 were detected with the monoclonal anti-KDEL antibody, AKT by rabbit anti-serum. 14-3-3 served as loading control. Numbers below BiP, Grp94, and AKT bands are the relative expression levels, determined by densitometry.
Inhibition of Hsp90 is also known to induce expression of Hsp70 and this response is useful as a diagnostic tool (FIG. 11).^61-62 A parallel response exists when Grp94 expression is ablated by RNAi, or when its activity is inhibited by RDC or 17-AAG: a transcriptional response is initiated that leads to upregulation of expression of BiP, the ER member of the Hsp70 family (Eletto et al., submitted). We therefore assessed the ability of 2 to cause BiP up-regulation, in comparison to pan-Hsp90 inhibitors. […] However, at these concentrations, the compound also destabilized Akt, a hallmark of inhibition of cytosolic Hsp90 (FIG. 12).

[4] = system: Drosophila larvae (w1118); experiment: Drosophila larval growth on supplemented fly food; format: in vivo
Source text: In the absence of zygotic expression of Gp93, however, larvae display a pronounced growth defect, commensurate with disrupted gut epithelial morphology, decreased gut nutrient uptake, and marked aberrations in copper cell structure and function. As a consequence, loss of Gp93 expression is larval lethal in Drosophila. […]. […] In parallel experiments, larval gut tissue was obtained from each of the feeding conditions and gut epithelial morphology evaluated by fluorescence microscopy. […] Pharmacokinetic studies of compound absorption and metabolism may provide addition insights into this partial phenotypic behavior.
Compound effects on Drosophila larval growth were examined as described in 26. […]

[5] = system: BiP expression; experiment: Induction of BiP expression (immunoblot); format: cell-based
[6] = system: National Cancer Institute 60-cell panel (NCI-60); experiment: NCI 60-cell panel cytotoxicity profile; format: cell-based
Source text: This should not dampen excitement for selective Grp94 inhibitors, as numerous studies have shown 3-dimensional tumor response to be drastically different from cell culture responses. Requisite studies are underway to understand the effect of Grp94 inhibition on 3-dimensional tumor models.

[7] = system: IGF-II secretion; experiment: IGF-II secretion by serum-starved C2C12 cells (ELISA); format: cell-based, mouse; conditions: 10 μM
Protocol: IGF-II is a second well-defined Grp94-dependent client protein and active Grp94 is required for the secretion of IGF-11 (Ostrovsky et al., 2009).
For IGF-II ELISA, plates were coated with anti-IGF-II (MAb 792, R&D Systems) and incubated with the test cell media. The bound IGF-II was detected with a biotinylated anti-IGF-II antibody (BAF792, R&D Systems) and developed with streptavidin-HRP (R&D Systems) according to the manufacturer's recommended procedure. Optical density units were converted to concentrations of the growth factor with a standard curve generated with recombinant IGF-II (792-MG) (R&D Systems). Data were acquired in duplicate on a microtiter-plate reader (Dynatech Laboratories, Chantilly, Va.) at 450 nm.

[8] = system: IGF-II secretion; conditions: serum-starved C2C12 myoblast cells; cited from earlier work
[9] = system: HeLa cells; experiment: HeLa cell survival (XTT assay), GRP94-sufficient or -deficient cells; format: cell-based; conditions: Homo sapiens, 48 hrs, regardless of presence of GRP94, read-out: IC50 for HeLa cell viability
Protocol: GRP94 and BiP were detected by the anti-KDEL antibody. *, an unknown KDEL-containing band. […] Cell survival was measured by XTT assay (n=4).
Similar results were obtained with other cell lines (e.g. C2C12 in FIG. 6).

[10] = target: yHsp82 (yeast homolog of Hsp90β) (Saccharomyces cerevisiae, UniProt P02829); experiment: Binding affinity by fluorescent quenching, yHsp82; conditions: read-out: Kd value for yHsp82 (yeast homolog of Hsp90β), FIG. 1B
[11] = target: Grp94 (Canis lupus familiaris, UniProt P41148); experiment: Binding affinity by fluorescent quenching, Grp94
[12] = target: T1, Grp94 (Homo sapiens, UniProt P14625); experiment: Toll trafficking assay in Toll-transfected HEK293 cells; format: cell-based; conditions: Toll presentation inhibition versus Western blot of Hsp90-dependent client proteins
T1 construct: endogenous in cells; host or cells: HEK293 (transfected only with pcDNA6B-Toll-Flag, the read-out client)

[13] = system: SKBR3 (Her2 overexpressing, ER—) breast cancer cells; experiment: Anti-proliferative activity, SKBR3; format: cell-based, human; conditions: said to be mimicked by the client degradation value; read-out: observed IC50 in SkBR3
Protocol: (§1) As previously mentioned, it has been shown that Grp94 is not essential for tissue culture cell viability.^28 In contrast, loss of functional Hsp90α or Hsp90β results in cell death. Therefore, we investigated the anti-proliferative effects of compounds 1-5 against two breast cancer cells, MCF7 (ER+) and SKBR3 (Her2 overexpressing, ER—), and against the non-transformed HEK293 cells. […] To support these findings, western blot analyses of Hsp90α/β client proteins were performed from HEK293 cell lysates.

[14] = system: MCF7 (ER+) breast cancer cells; experiment: Anti-proliferative activity, MCF7; format: cell-based, human; conditions: said to be mimicked by the client degradation value; read-out: observed IC50 in MCF7
Protocol: as §1

[15] = read-out: Kd value for Grp94, fluorescent quenching, FIG. 1B
[16] = read-out: kd for binding to the Hsp90 isoform GRP94

Grp94 (Canis lupus familiaris, UniProt P41148), sequence (P41148 22-804): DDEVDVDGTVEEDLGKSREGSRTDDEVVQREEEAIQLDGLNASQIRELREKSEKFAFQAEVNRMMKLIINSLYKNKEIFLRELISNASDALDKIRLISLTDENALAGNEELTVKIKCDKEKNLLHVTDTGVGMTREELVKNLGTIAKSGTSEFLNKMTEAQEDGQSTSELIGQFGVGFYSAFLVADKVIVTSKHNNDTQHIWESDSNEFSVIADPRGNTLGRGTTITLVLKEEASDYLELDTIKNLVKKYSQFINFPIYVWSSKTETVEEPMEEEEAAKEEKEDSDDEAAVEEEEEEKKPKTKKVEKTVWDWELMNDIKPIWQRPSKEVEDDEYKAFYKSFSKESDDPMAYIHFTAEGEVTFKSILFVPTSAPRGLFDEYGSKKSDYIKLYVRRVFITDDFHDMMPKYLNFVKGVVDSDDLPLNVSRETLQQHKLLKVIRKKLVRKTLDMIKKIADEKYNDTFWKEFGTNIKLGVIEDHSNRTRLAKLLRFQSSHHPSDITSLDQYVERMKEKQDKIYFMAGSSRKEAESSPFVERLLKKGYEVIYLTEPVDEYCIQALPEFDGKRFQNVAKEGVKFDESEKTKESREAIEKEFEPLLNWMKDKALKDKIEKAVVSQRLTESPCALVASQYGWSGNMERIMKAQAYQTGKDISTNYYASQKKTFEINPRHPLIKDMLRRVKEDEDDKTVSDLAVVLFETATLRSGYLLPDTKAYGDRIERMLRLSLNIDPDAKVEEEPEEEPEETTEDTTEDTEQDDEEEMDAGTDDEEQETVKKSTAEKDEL
yHsp82 (yeast homolog of Hsp90β), sequence (P02829 whole entry): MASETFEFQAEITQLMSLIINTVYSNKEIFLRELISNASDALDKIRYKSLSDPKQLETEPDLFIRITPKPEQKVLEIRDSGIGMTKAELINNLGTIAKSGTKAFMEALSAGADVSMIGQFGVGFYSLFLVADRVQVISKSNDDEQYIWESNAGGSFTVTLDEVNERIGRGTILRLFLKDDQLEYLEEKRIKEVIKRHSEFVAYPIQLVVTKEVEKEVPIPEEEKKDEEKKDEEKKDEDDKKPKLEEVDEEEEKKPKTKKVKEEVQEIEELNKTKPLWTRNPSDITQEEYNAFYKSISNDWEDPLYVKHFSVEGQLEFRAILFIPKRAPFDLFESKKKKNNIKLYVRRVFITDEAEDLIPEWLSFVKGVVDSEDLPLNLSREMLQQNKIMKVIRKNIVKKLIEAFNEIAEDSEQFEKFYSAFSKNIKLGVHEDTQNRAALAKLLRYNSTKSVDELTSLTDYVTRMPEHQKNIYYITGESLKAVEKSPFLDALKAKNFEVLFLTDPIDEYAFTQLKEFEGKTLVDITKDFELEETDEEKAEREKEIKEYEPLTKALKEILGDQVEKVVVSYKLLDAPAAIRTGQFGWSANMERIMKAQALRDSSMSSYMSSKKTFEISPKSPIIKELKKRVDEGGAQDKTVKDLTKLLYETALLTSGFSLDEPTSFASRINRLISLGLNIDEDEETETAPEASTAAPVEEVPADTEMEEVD
T1 sequence (P14625 22-803): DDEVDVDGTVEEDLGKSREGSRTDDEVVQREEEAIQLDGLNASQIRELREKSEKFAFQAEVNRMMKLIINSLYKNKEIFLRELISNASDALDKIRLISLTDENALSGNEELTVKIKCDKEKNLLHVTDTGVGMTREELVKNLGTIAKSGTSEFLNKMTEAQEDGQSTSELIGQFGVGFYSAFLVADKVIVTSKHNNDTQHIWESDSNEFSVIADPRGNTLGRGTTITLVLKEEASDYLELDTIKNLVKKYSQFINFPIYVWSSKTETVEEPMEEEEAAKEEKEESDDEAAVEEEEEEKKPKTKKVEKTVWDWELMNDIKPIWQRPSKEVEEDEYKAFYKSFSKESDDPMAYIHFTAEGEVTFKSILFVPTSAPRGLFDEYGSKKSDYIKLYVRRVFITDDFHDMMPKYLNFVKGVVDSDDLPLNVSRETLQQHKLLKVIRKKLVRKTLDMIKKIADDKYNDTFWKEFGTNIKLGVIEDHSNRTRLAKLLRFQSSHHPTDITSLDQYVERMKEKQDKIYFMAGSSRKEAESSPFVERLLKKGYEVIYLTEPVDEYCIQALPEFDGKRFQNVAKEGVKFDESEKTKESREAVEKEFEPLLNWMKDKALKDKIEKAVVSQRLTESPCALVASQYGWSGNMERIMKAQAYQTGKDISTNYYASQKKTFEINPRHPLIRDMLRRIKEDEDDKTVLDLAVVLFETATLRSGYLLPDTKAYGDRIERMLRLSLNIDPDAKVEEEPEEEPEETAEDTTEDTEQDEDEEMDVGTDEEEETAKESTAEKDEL

COC(=O)c1c(O)cc(O)c(Cl)c1CCc1nccn1Cc1ccccc1 [Compound 2, Methyl 2-(2-(1-benzyl-1H-imidazol-2-yl)ethyl)-3-chloro-4,6-dihydroxybenzoate]
effect on cell viability [1]: little effect on cell viability | HSP70 induction ([2]; HEK293, 100 μM): induction of HSP70 | concentration at which Hsp90α/β client proteins (Raf, Akt) are degraded/affected [2]: 100 µM | concentration at which Akt is destabilized [3]: above 200 μM | Drosophila larval growth ([4]; 250 μg/ml to 1 mg/ml in fly food, 96 hours): dramatic growth phenotype; also recorded: stunted the growth of Drosophila larvae in a dose-dependent manner | larval gut copper cell structure ([4]; fluorescence microscopy of gut tissue, data not shown): No grossly discernible effects on copper cell structure | BiP up-regulation ([5]; 0-75 μM, C2C12 cells): did not lead to up-regulation of BiP | concentration inducing BiP expression ([5]; resembles RDC): above 200 μM | cytotoxicity across all 60 transformed cell lines [6]: negligible cytotoxicity | reduction of IGF-II secretion [7]: Approximately 60%

C=CCNC1=C2C[C@@H](C)C[C@H](OC)[C@H](O)[C@@H](C)/C=C(\C)[C@H](OC(N)=O)[C@@H](OC)/C=C\C=C(/C)C(=O)NC(=CC1=O)C2=O [Compound 17-AAG, 17-(allylamino)-17-demethoxygeldanamycin]
secretion of IGF-II (previously demonstrated) [8]: prevent the secretion of IGF-II | BiP up-regulation ([5]; 25 μM, data not shown): did cause BiP up-regulation

C[C@@H]1C[C@H]2O[C@@H]2/C=C\C=C\C(=O)Cc2c(Cl)c(O)cc(O)c2C(=O)O1 [RDC, radicicol]
BiP up-regulation ([5]; 10 μM): did cause BiP up-regulation | IC50 [9]: 8000 nM

COC(=O)c1c(O)cc(O)c(Cl)c1CCC(=O)NC1=CC(=O)C(OC)=CC1=O [Radamide]
Kd [10]: 870 ± 140 nM | fold higher binding affinity for full-length Grp94 than yHsp82 ([11]; full-length Grp94 vs yHsp82): approximately 2 fold | Kd [11, 15]: 520 ± 130 nM | Kd [11, 16]: 254 nM

cis-radamide [cRDA]
selectivity for GRP94 versus cytoplasmic Hsp90 α/β [12]: minimal selectivity | concentration at which Hsp90α/β client proteins (Raf, Akt) are degraded/affected [2]: ~1 µM | Kd [10]: 240 ± 120 nM | Kd [11, 15]: 110 ± 20 nM | Kd [11, 16]: 110 nM | IC50 [13]: ~1000 nM | IC50 [14]: ~1000 nM

Source: patent US8685966B2, “GRP94 inhibitors” (University of Kansas, priority 2011, dated 2014)
